{
  "source": "patent KR20090133069A",
  "about": "“형질전환 성장인자의 활성을 가지는 펩타이드 및 그의 용도” ((주)케어젠, priority 2009, dated 2009)",
  "key": {"NIH-3T3 세포": {"tested_on": "NIH-3T3 세포", "experiment": "Peptide stability: storage at 40℃ in 50 mM Tris-HCl (pH 8.0), remaining activity by MTT assay", "type": "physicochemical", "conditions": "50 mM Tris-HCl pH 8.0, sampled at days 0-100, peptide 10 ㎍/ml, TGF-β1 1 ㎍/ml, Fig. 3"}, "C57BL/6 마우스의 멜라노사이트": {"tested_on": "C57BL/6 마우스의 멜라노사이트", "experiment": "Melanin production in melanocytes induced with α-MSH", "type": "cell-based, mouse", "conditions": "α-MSH 200 μg/ml; peptide 10 μg/ml; 3 days; Fig. 4"}, "NIH3T3 세포": {"tested_on": "NIH3T3 세포", "experiment": "Cytotoxicity test, SRB colorimetry, NIH3T3 cells", "type": "cell-based", "conditions": "10 ng/ml to 100 μg/ml, 72 h, Fig. 11"}, "B16F10 세포주": {"tested_on": "B16F10 세포주", "experiment": "Cytotoxicity test, SRB colorimetry, B16F10 cells", "type": "cell-based", "conditions": "10 ng/ml to 100 μg/ml, 72 h, Fig. 11"}, "B16F10 세포": {"tested_on": "B16F10 세포", "experiment": "Microscopic observation of melanosomes in B16F10 cells treated with α-MSH", "type": "cell-based, mouse", "conditions": "α-MSH 200 μg/ml; peptide 10 μg/ml; 4 days; Fig. 7"}, "HaCat 세포": {"tested_on": "HaCat 세포", "experiment": "Cytotoxicity test, SRB colorimetry, HaCat cells", "type": "cell-based", "conditions": "10 ng/ml to 100 μg/ml, 72 h, Fig. 11"}, "TRP2": {"tested_on": "TRP2", "experiment": "RT-PCR of melanogenesis marker TRP2 in B16F10 cells treated with α-MSH", "type": "cell-based, mouse", "conditions": "α-MSH plus peptide 10 μg/ml; 4 days; Fig. 8"}, "[1]": {"tested_on": "MITF(microphthalmia-associated transcription factor)", "experiment": "RT-PCR of melanogenesis marker MITF in B16F10 cells treated with α-MSH", "type": "cell-based, mouse", "conditions": "α-MSH plus peptide 10 μg/ml; 4 days; Fig. 8"}, "프로콜라겐": {"tested_on": "프로콜라겐", "experiment": "Procollagen production in NIH3T3 fibroblasts (ELISA)", "type": "cell-based", "conditions": "peptide 1 and 10 μg/ml, 72 h, Fig. 9"}, "피브로넥틴": {"tested_on": "피브로넥틴", "experiment": "Fibronectin production in NIH3T3 fibroblasts (ELISA)", "type": "cell-based", "conditions": "peptide 1 and 10 μg/ml, 72 h, Fig. 10"}, "[2]": {"tested_on": "TRP1(tyrosinase-related protein-1)", "experiment": "RT-PCR of melanogenesis marker TRP1 in B16F10 cells treated with α-MSH", "type": "cell-based, mouse", "conditions": "α-MSH plus peptide 10 μg/ml; 4 days; Fig. 8"}, "타이로시나아제": {"tested_on": "타이로시나아제", "experiment": "Tyrosinase activity (L-DOPA, 405 nm) in lysate of B16F10 cells treated with α-MSH", "type": "cell-based, mouse", "conditions": "peptide 1 and 10 μg/ml, 4 days, versus α-MSH alone, Fig. 6"}},
  "data": [
    {"substance": "재조합 TGF-β1: 대장균으로부터 생산된 재조합 TGF-β1(Sigma), control in the stability test", "values": [
      {"measurement": "remaining activity over storage time (stability)", "setting": "NIH-3T3 세포", "result": "활성도가 급격히 감소됨"}
    ]},
    {"substance": "NH2-Gly-Arg-Gly-Asp-Tyr-Leu-Arg-Ser-Ala-Asp-Thr-OH (H-GRGDYLRSADT-OH) [서열2 펩타이드]", "values": [
      {"measurement": "melanin production (visual)", "setting": "C57BL/6 마우스의 멜라노사이트", "result": "α-MSH를 처리하지 않았을 때와 유사한 멜라닌 생성"},
      {"measurement": "cell number / cytotoxicity", "setting": "NIH3T3 세포", "result": "세포 수의 감소는 전혀 관찰 되지 않았으며"},
      {"measurement": "cell number / cytotoxicity", "setting": "B16F10 세포주", "result": "세포 수의 감소는 전혀 관찰 되지 않았으며"},
      {"measurement": "melanosomes induced by α-MSH (microscopy)", "setting": "B16F10 세포", "result": "사라지는"},
      {"measurement": "cell number / cytotoxicity", "setting": "HaCat 세포", "result": "세포 수의 감소는 전혀 관찰 되지 않았으며"},
      {"measurement": "TRP2 expression (RT-PCR)", "setting": "TRP2", "result": "발현을 억제한다"},
      {"measurement": "MITF expression (RT-PCR)", "setting": "[1]", "result": "발현을 억제한다"},
      {"measurement": "procollagen production", "setting": "프로콜라겐", "result": "우수한 프로콜라겐 생성 촉진능"},
      {"measurement": "fibronectin production", "setting": "피브로넥틴", "result": "우수한 피브로넥틴 생성 촉진능"},
      {"measurement": "TRP1 expression (RT-PCR)", "setting": "[2]", "result": "발현을 억제한다"},
      {"measurement": "decrease of tyrosinase activity", "setting": "타이로시나아제", "result": "≥ 30", "unit": "%"},
      {"measurement": "remaining activity over storage time (stability)", "setting": "NIH-3T3 세포", "result": "활성도가 오랫동안 지속됨"}
    ]}
  ]
}
